Assay results taken from patent US20070088043A1, “Novel HDAC inhibitors” (ORCHID RESEARCH LABORATORIES LIMITED., priority 2005, published 2007).
pIC50: −log10 of the molar value.

Columns and labels:
HCT 116 cells = assay: Anti-cancer screen (MTT), HCT116; assay type: cell-based; conditions: Homo sapiens, HCT-116, HCT116 cells, 48 hours, MTT; for GI50: concentration to decrease % growth by 50%; for IC100: concentration to decrease % growth by 100%, read-out: HCT116 TGI; for LC50: concentration to decrease % growth by 150%
Description: (§1) Experimental drugs are screened for anti-cancer activity in three cell lines for their GI50, TGI and LC50 values (using five concentrations for each compound). The cell lines are maintained in DMEM containing 10% fetal bovine serum. 96 well micro titer plates are inoculated with cells in 100 μL for 24 h at 37° C., 5% CO2, 95% air and 100% relative humidity. 5000 HCT 116 cells/well, 5000 NCIH 460 cells/well and 5000 U251 cells/well are plated. A separate plate with these cell lines is also inoculated to determine cell viability before the addition of the compounds (T0).
(§2) Following 24-hour incubation, experimental drugs are added to the 96 well plates. Each plate contains one of the above cell lines and the following in triplicate: five different concentrations (0.01, 0.1, 1, 10 and 100 μM) of four different compounds, appropriate dilutions of a cytotoxic standard and control (untreated) wells. Compounds are dissolved in DMSO to make 20 mM stock solutions on the day of drug addition and frozen at −20° C. Serial dilutions of these 20 mM stock solutions are made in complete growth medium such that 100 μL of these drug solutions in medium, of final concentrations equaling 0.01, 0.1, 1, 10 and 100 μM can be added to the cells in triplicate. Standard drugs whose anti-cancer activity has been well documented and which are regularly used are doxorubicin and SAHA.
(§3) For To measurement, 24 hours after seeding the cells, 10 μL of 3-(4,5-Dimethyl-2-thiazolyl)-2,5-diphenyl-2H-tetrazolium (MTT) solution per well is added and incubation carried out for 3 hours at 37° C., 5% CO2, 95% air and 100% relative humidity, protected from light. Cells incubated with compounds for 48 hours are treated similarly except with the addition of 20 μL MTT solution per well and a subsequent incubation under the same conditions. After 3 hours of MTT incubation, well contents are aspirated carefully followed by addition of 150 μL DMSO per well. Plates are agitated to ensure solution of the formazan crystals in DMSO and absorbance read at 570 nm. […]

MDAMB231/U251 = assay: Anti-cancer screen (MTT), MDAMB231/U251; assay type: cell-based; conditions: MDAMB231/U251 cells, 48 hours; for GI50: concentration to decrease % growth by 50%; for IC100: concentration to decrease % growth by 100%, read-out: MDAMB231/U251 TGI; for LC50: concentration to decrease % growth by 150%
Description: as §1, §2, §3

NCIH 460 cells = assay: Anti-cancer screen (MTT), NCIH460; assay type: cell-based; conditions: Homo sapiens, NCI-H460, NCIH460 cells, 48 hours, MTT; for GI50: concentration to decrease % growth by 50%; for IC100: concentration to decrease % growth by 100%, read-out: NCIH460 TGI; for LC50: concentration to decrease % growth by 150%
Description: as §1, §2, §3

[1] = system: NCIH460, HCT116, MDAMB231/U251; assay: Anti-cancer screen, mean GI50 over the cell lines; assay type: cell-based; conditions: in µM
Description: as §1, §2, §3

[2] = system: HDAC (Mouse Liver Extract); assay: Histone Deacetylase (HDAC) Inhibition Assay using Boc-Lys (Ac)-AMC Substrate; assay type: biochemical; conditions: mouse liver enzyme, NA = No Activity; for HDAC Inhibition 1 μM / HDAC Inhibition 10 μM: in % (unit assumed)
Description: HDAC Activitv Screening: Histone Deacetylase (HDAC) Inhibition Assay using Boc-Lys (Ac)-AMC Substrate:
Inhibition of HDAC has been implicated to modulate transcription and to induce apoptosis or differentiation in cancer cells. The fluorometric assay provides a fast and fluorescence based method that eliminates radioactivity, extractions or chromatography, as used in traditional assays. The assay based on two steps. First, the HDAC fluorometric substrate, which comprises an acetylated lysine side chain, is incubated with a sample containing HDAC activity (Mouse Liver Extract). Deacetylation of the substrate sensitizes the substrate, in the second step; treatment with the Trypsin stop solution produces a fluorophore that can be easily analyzed using fluorescence plate reader.
Assay was done in 96 well black microplate and total volume of the assay is 100 ul. Mouse liver enzyme is diluted 1:6 with HDAC buffer. Enzyme cocktail made of 10 ul of diluted enzyme and 30 ul of HDAC buffer. 40 ul of enzyme cocktail dispensed into each well. 10 ul of different concentrations of inhibitor added in to each well, except enzyme control well. Preincubated the plate at 30° C. for 5 minutes. The HDAC reaction is started by adding 50 ul of HDAC substrate (Boc-Lys (Ac)-AMC Substrate) solution. Incubated the plate at 30° C. for 30 minutes. Adding 100 ul of Trypsin stop solution stops the reaction. The plate is incubated again at 30° C. for 20-30 minutes. The release of AMC is monitored by measuring the fluorescence at excitation wavelength of 365 or 360 nm and emission wavelength of 440 or 460 nm. Buffer and substrate alone kept for blank subtraction. (Dennis Wegener et al, Anal. Biochem, 321, 2003, 202-208).

Row | SMILES | GI50 (HCT 116 cells) | IC100 (HCT 116 cells) | LC50 (HCT 116 cells) | GI50 (MDAMB231/U251) | IC100 (MDAMB231/U251) | LC50 (MDAMB231/U251) | GI50 (NCIH 460 cells) | IC100 (NCIH 460 cells) | LC50 (NCIH 460 cells) | Mean GI50 [1] | HDAC Inhibition 1 μM [2] | HDAC Inhibition 10 μM [2] | pIC50 [2]
1 | CC(=O)ON(C(C)=O)C(=O)CCCCCCC(=O)N1CCN(CC(=O)Nc2nc3ccc(C)cc3s2)CC1 [Example 38] | 25 µM | 88 µM | > 100 µM | 0.4 µM | 30 µM | > 100 µM | 40 µM | > 100 µM | > 100 µM | >100 | 37.83 | 84.23 | –
2 | CC(=O)SCCCCC(=O)N1CCN(CC(=O)Nc2cccc(F)c2)CC1 [Example 23, 2-[4-(5-Thioacetylpentanoyl)piperazin-1-yl]-N-(6-fluorophenyl-2-yl)acetamide] | 63 µM | > 100 µM | > 100 µM | 38 µM | 78 µM | > 100 µM | > 100 µM | > 100 µM | > 100 µM | >100 | 47.2 | 81.7 | 5.32
3 | CC(=O)SCCCCCC(=O)N1CCN(CC(=O)Nc2nc3ccc(C)cc3s2)CC1 [Example 12, 2-[4-(6-Thioacetylhexanoyl)piperazin-1-yl]-N-(6-methyl-1,3-benzothiazol-2-yl)acetamide] | 7 µM | > 100 µM | ≥ 100 µM | 19 µM | 65 µM | > 100 µM | 25 µM | 75 µM | > 100 µM | 17 | 57.31 | 85.59 | –
4 | CC(=O)SCCCCC(=O)N1CCN(CC(=O)Nc2ccccc2)CC1 [Example 16, 2-[4-(5-Thioacetylpentanoyl)piperazin-1-yl]-N-(phenyl-2-yl)acetamide] | 58 µM | > 100 µM | > 100 µM | 1 µM | > 100 µM | > 100 µM | 30 µM | 52 µM | > 100 µM | 29.67 | 29.26 | 68.52 | –
5 | CC(=O)SCCCCC(=O)N1CCN(CC(=O)Nc2nc3ccccc3s2)CC1 [Example 8, 2-[4-(5-Thioacetylpentanoyl)piperazin-1-yl]-N-(1,3-benzothiazol-2-yl)acetamide] | 7 µM | 80 µM | > 100 µM | > 100 µM | > 100 µM | > 100 µM | 18 µM | > 100 µM | > 100 µM | 12.50 | 31.41 | 69.85 | –
6 | CC(=O)SCCCCC(=O)N1CCN(CC(=O)Nc2nc(C)cs2)CC1 [Example 4, 2-[4-(5-Thioacetylpentanoyl)piperazin-1-yl]-N-(4-methyl-1,3-thiazol-2-yl)acetamide] | 60 µM | > 100 µM | > 100 µM | 45 µM | > 100 µM | > 100 µM | 9 µM | 91 µM | > 100 µM | 38 | 15.82 | 50.88 | –
7 | COC(=O)[C@H](CO)NC(=O)CCCCCCC(=O)N1CCN(CC(=O)Nc2nc3ccc(C)cc3s2)CC1 [Example 30] | 8 µM | 51 µM | 79 µM | 35 µM | 56 µM | 82 µM | 42.5 µM | 80.5 µM | > 100 µM | 28.50 | – | 4.65 | –
8 | O=C(CN1CCN(C(=O)CCCCCS)CC1)Nc1nc2ccccc2s1 [Example 24, N-1,3-benzothiazol-2-yl-2-[4-(6-mercaptohexanoyl)piperazin-1-yl]acetamide] | 0.7 µM | > 100 µM | > 100 µM | 5 µM | 66 µM | > 100 µM | 60 µM | > 100 µM | > 100 µM | 21.90 | 4 | 27.4 | –
9 | CC(=O)NCCCCCC(=O)N1CCN(CC(=O)Nc2nc3ccccc3s2)CC1 [Example 43] | 90 µM | > 100 µM | > 100 µM | > 100 µM | > 100 µM | > 100 µM | > 100 µM | > 100 µM | > 100 µM | >100 | 2.61 | 5.24 | –
10 | COc1cccc2sc(NC(=O)CN3CCN(C(=O)CCCCCSC(C)=O)CC3)nc12 [Example 21, 2-[4-(6-Thioacetylhexanoyl)piperazin-1-yl]-N-(4-methoxy-1,3-benzothiazol-2-yl)acetamide] | 52 µM | > 100 µM | > 100 µM | 38 µM | > 100 µM | > 100 µM | 93 µM | > 100 µM | > 100 µM | 61 | 82.9 | 96.2 | 6.24
11 | O=C(CCCCCCC(=O)N1CCN(CC(=O)Nc2cccc(F)c2)CC1)NO [Example 36, 8-{4-[2-(3-Fluorophenyl-2-ylamino)-2-oxoethyl]piperazin-1-yl}-N-hydroxy-8-oxo octanamide] | 40 µM | 82 µM | > 100 µM | 27 µM | 62 µM | > 100 µM | 52 µM | > 100 µM | > 100 µM | 39.67 | 98.2 | 72.99 | 6.02
12 | CC(=O)SCCCCCC(=O)N1CCN(CC(=O)Nc2nc3c(C)cccc3s2)CC1 [Example 10, 2-[4-(6-Thioacetylhexanoyl)piperazin-1-yl]-N-(4-methyl-1,3-benzothiazol-2-yl)acetamide] | 3 µM | 50 µM | > 100 µM | 2 µM | 9 µM | > 100 µM | 0.5 µM | 2 µM | 95 µM | 1.80 | 54.06 | 87.16 | 5.82
